Tests used:
E. coli (ATCC 25922) = test: standard broth dilutions susceptibility test, read at 600 nm; format: cell-based
Procedure: The following methods were used to conduct the experiments described in Examples 1-3, below: The experiments were conducted using the standard broth dilutions susceptibility test (Jorgensen, J. H.; Turnidge, J. D., Susceptibility test methods: dilution and disk diffusion methods. In Manual of Clinical Microbiology, Eleventh Edition, American Society of Microbiology: 2015; pp 1253-73). Briefly, 1 μl of glycerol stock aliquot of E. coli (ATCC 25922) was inculcated into Tryptic Soya agar (TSA) (Sigma Aldrich 22091) plates and incubated at 37° C. for 24 hrs. Subsequently, 3-5 separate colonies were selected and transferred into 4 ml Tryptic Soya broth (TSB) (Sigma Aldrich 22092) and incubated at 37° C. for 24 hrs. After incubation, samples were diluted 4 ml into 50 ml TSB to make E. coli stock. 200 μl samples were then placed into wells of a 96-microwell plate. All samples were prepared in TSB, (Blank) using TSB, ERGO (OXIS International), LF (Sigma Aldrich) and NLF were diluted to 1 mg/ml. The nitration reaction was prepared following the method reported by Selzle et al (Determination of nitration degrees for the birch pollen allergen Bet v 1. Analytical and Bioanalytical Chemistry 2013, 405(27):8945-49). According to this procedure, 400 μl aliquots of 5.0 mg/ml (±5%) LF in aqueous solution were pipetted into glass vials. […] Using the plate reader (Tecan Infinite, M1000 PRO). […]

[1] = ferrous iron (Fe++) binding capacity of LF; settings: FIG. 3
Source text: As noted above, LF binds ferrous iron (Fe++) and controls iron distribution throughout the body and its ability to bind to inflammatory and other cell membranes and impact the activities of these cells through its iron binding activities and other mechanisms. The inventors hypothesized that the antibacterial effect may be linked to the iron binding activity of LF and that this antibacterial effect may be disrupted by nitration.
However, sodium peroxinitrite caused changes that went far beyond the mere nitration of a few tyrosine residues to include destruction of tyrosine and tryptophan which at least in part were converted to unidentified reaction products. Nitration can occur as a consequence of the formation of reactive nitrogen species in the body and as a result of drug or chemical reactions, and/or environmental toxins in polluted air, water, or other routes of intake.

C[N+](C)(C)[C@@H](Cc1c[nH]c(=S)[nH]1)C(=O)[O-] [ERGO, 3-(2-Sulfanylidene-1,3-dihydroimidazol-4-yl)-2-(trimethylazaniumyl)propanoate]
growth of E. coli (E. coli (ATCC 25922); LF 1 mg/ml or 2 mg/ml, ERGO 5 mM or 50 mM, compared to growth of E. coli without additions, FIGS. 1A and 1B): reduced the growth of E. coli
dependence of retained anti-bacterial activity on ERGO concentration (E. coli (ATCC 25922); LF exposed to nitrating agents, various concentrations of ERGO, FIG. 2): related to the concentration of ERGO added
effect of ERGO on the ferrous iron (Fe++) binding capacity of LF [1]: does not appear that the ability of ERGO to increase the anti-bacterial activity of LF results from binding of Fe++ on LF

— US11957737B2, “Methods of treating microbial infection and inflammation” (Colorado Seminary, Owner and Operator of University of …, priority 2017, dated 2024)
